Where a name gives a salt, the structure may show the parent alone. Read-outs that look alike come from different tables or passages of the source.
Tests used:
IMP-1 = IMP-1 (Serratia marcescens, UniProt P52699); test: biochemical; type: biochemical
How it was run: (§1)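 Fluorescence assay, CCF2-FA substrate (cephalosporin core linking 7-hydroxycoumarin to fluorescein); inhibitor + MBL + substrate, 2 h, 25° C. IC50 by 4-parameter fit, semi-log plot.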

NDM-1 = NDM-1 (Klebsiella pneumoniae, UniProt C7C422); test: biochemical; type: biochemical; conditions: CCF2-FA substrate, 2 hours at 25° C; read-out: NDM-1 IC50
Chain of NDM-1 (C7C422 whole entry, looked up, species assumed): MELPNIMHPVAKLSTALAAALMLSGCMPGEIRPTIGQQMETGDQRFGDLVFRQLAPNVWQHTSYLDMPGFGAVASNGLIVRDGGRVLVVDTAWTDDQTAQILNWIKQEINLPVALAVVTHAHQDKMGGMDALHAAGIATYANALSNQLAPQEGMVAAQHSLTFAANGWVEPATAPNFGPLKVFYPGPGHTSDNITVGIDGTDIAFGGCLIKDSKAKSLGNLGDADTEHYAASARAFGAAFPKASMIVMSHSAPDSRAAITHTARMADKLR
How it was run: as §1

VIM-1 = VIM-1 (Pseudomonas aeruginosa (strain ATCC 15692 / DSM 22644 / CIP 104116 / JCM 14847 / LMG 12228 / 1C / PRS 101 / PAO1), UniProt A0A0F7KYQ8); test: biochemical; conditions: CCF2-FA substrate, 2 hours at 25° C
How it was run: as §1

[1] = tested on: Escherichia coli expressing NDM-1 (CLB30005, CLB30016); type: cell-based; conditions: with imipenem 1 μg/ml, 95% inhibition of bacterial growth; for Escherichia coli MITC95: NDM-1 (CLB30016)
How it was run: (§2)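 Colonies from overnight 35 °C blood-agar cultures were suspended in saline, diluted 1:100 into 1.1× CAMHB and exposed to test compound with or without imipenem at 1 μg/ml. After 22–24 h at 35 °C, absorbance was read to find the concentration restoring imipenem susceptibility.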

[2] = tested on: Klebsiella pneumoniae expressing VIM-1 (IHMA599644); type: cell-based; conditions: with imipenem 1 μg/ml, 95% inhibition of bacterial growth; for Klebsiella pneumoniae MITC95: VIM-1 (IHMA599644)
How it was run: as §2

[3] = tested on: Serratia marcescens expressing IMP-1 (CL5741); type: cell-based; conditions: with imipenem 1 μg/ml, 95% inhibition of bacterial growth; for Serratia marcescens MITC95: IMP-1 (CL5741)
How it was run: as §2

[4] = tested on: P. aeruginosa expressing IMP-1, efflux+ (MB9798); type: cell-based, Pseudomonas aeruginosa; conditions: for P. aeruginosa expressing IMP-1, efflux+ (MB9798) MITC95: imipenem at 2 μg/mL, in the presence of a class A, C, D serine β-lactamase inhibitor closely related to relebactam; for Efflux ratio: ratio MITC95 PA_9798/MITC95 PA_9799
From the text: (§3) The strain background is Pseudomonas aeruginosa PAO1.

[5] = tested on: P. aeruginosa expressing IMP-1, efflux− (MB9799); test: Efflux: concentration of MBL inhibitor which restores susceptibility to imipenem; type: cell-based, Pseudomonas aeruginosa; conditions: imipenem at 2 μg/mL, in the presence of a class A, C, D serine β-lactamase inhibitor closely related to relebactam
From the text: as §3

[6] = CCF2-FA substrate, 2 hours at 25° C, read-out: IMP-1 IC50

Chain of IMP-1 (P52699 whole entry, looked up, species assumed): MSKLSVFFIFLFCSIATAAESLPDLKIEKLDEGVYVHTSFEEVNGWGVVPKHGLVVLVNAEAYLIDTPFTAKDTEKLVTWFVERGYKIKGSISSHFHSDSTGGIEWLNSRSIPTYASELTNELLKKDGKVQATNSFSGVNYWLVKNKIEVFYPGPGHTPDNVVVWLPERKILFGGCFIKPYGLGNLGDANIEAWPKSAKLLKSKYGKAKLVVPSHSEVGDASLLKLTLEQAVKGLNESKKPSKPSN

SMILES	IC50 (IMP-1; [6])	IC50 (NDM-1)	IC50 (VIM-1)	Escherichia coli MITC95 [1]	Klebsiella pneumoniae MITC95 [2]	Serratia marcescens MITC95 [3]	P. aeruginosa expressing IMP-1, efflux+ (MB9798) MITC95 [4]	Efflux ratio [4]	P. aeruginosa expressing IMP-1, efflux− (MB9799) MITC95 [5]	Escherichia coli expressing NDM-1 (CLB30016) MITC95 [1]	Klebsiella pneumoniae expressing VIM-1 (IHMA599644) MITC95 [2]	Serratia marcescens expressing IMP-1 (CL5741) MITC95 [3]	IC50 (IMP-1)
NCCS(=O)(=O)c1ccc(-c2cccc3sc(N)nc23)c(-c2nn[nH]n2)c1S(N)(=O)=O [Example 313, 3-(2-aminobenzo[d]thiazol-4-yl)-6-((2-aminoethyl)sulfonyl)-2-(2H-tetrazol-5-yl)benzenesulfonamide]	0.257 nM	0.155 nM	0.232 nM	1.618 µM	2.009 µM	1.228 µM	0.6138 µM	0.69	0.8929 µM	–	–	–	–
NC[C@@H](O)CS(=O)(=O)c1ccc(-c2cccc3[nH]cnc23)c(-c2nn[nH]n2)c1S(N)(=O)=O [Example 361, (R)-6-((3-amino-2-hydroxypropyl)sulfonyl)-3-(1H-benzo[d]imidazol-4-yl)-2-(2H-tetrazol-5-yl) benzenesulfonamide]	0.174 nM	0.0905 nM	0.253 nM	0.7813 µM	1.563 µM	0.7813 µM	0.7813 µM	1.00	0.7813 µM	–	–	–	–
NS(=O)(=O)c1c(S(=O)(=O)C2CNC2)ccc(-c2cccc3sc(O)nc23)c1-c1nn[nH]n1 [Example 309, 6-(azetidin-3-ylsulfonyl)-3-(2-hydroxybenzo[d]thiazol-4-yl)-2-(2H-tetrazol-5-yl)benzenesulfonamide]	0.256 nM	0.0885 nM	0.145 nM	0.7813 µM	3.125 µM	3.125 µM	3.125 µM	2.00	1.563 µM	–	–	–	–
NCCS(=O)(=O)c1ccc(-c2cccc3cn[nH]c23)c(-c2nnn[nH]2)c1S(N)(=O)=O.O=C(O)C(F)(F)F [Example 173, 2-((4-(1H-indazol-7-yl)-2-sulfamoyl-3-(1H-tetrazol-5-yl)phenyl)sulfonyl)ethanaminium 2,2,2-trifluoroacetate]	0.16 nM	0.338 nM	0.264 nM	–	–	–	0.8906 µM	2.00	0.4453 µM	0.25 µM	0.8906 µM	0.8906 µM	–
NS(=O)(=O)c1c(S(=O)(=O)C2CCNCC2)ccc([C@H]2CC[C@@H](N)CC2)c1-c1nnn[nH]1 [Example 208, 3-((1s,4s)-4-aminocyclohexyl)-6-(piperidin-4-ylsulfonyl)-2-(1H-tetrazol-5-yl) benzenesulfonamide]	124 nM	20.6 nM	18.6 nM	–	–	–	6.25 µM	2.00	3.125 µM	1.563 µM	6.25 µM	3.125 µM	–
Cc1nnc2ccc(-c3ccc(S(=O)(=O)CCN)c(S(N)(=O)=O)c3-c3nnn[nH]3)cn12.O=C(O)C(F)(F)F [Example 133, 2-((4-(3-methyl-[1,2,4]triazolo[4,3-a]pyridin-6-yl)-2-sulfamoyl-3-(1H-tetrazol-5-yl)phenyl)sulfonyl)ethanaminium 2,2,2-trifluoroacetate]	29.4 nM	15.6 nM	0.968 nM	–	–	–	200 µM	64.00	3.125 µM	6.25 µM	6.25 µM	6.25 µM	–
NC1CCC(c2ccc(S(=O)(=O)C3CCNCC3)c(S(N)(=O)=O)c2-c2nnn[nH]2)CC1 (stereo not drawn) [Example 206, 3-(4-aminocyclohexyl)-6-(piperidin-4-ylsulfonyl)-2-(1H-tetrazol-5-yl) benzenesulfonamide]	23.5 nM	20.3 nM	0.857 nM	–	–	–	3.125 µM	2.00	1.563 µM	6.25 µM	3.125 µM	3.125 µM	–
Cn1cc2cc(-c3ccc(S(=O)(=O)CCN)c(S(N)(=O)=O)c3-c3nnn[nH]3)ccc2n1.O=C(O)C(F)(F)F [Example 153, 2-((4-(2-methyl-2H-indazol-5-yl)-2-sulfamoyl-3-(1H-tetrazol-5-yl)phenyl)sulfonyl)ethanaminium 2,2,2-trifluoroacetate]	0.457 nM	0.593 nM	0.309 nM	–	–	–	6.25 µM	4.00	1.563 µM	1.563 µM	3.125 µM	3.125 µM	–
NCCCS(=O)(=O)c1ccc(-c2cccc3[nH]cnc23)c(-c2nn[nH]n2)c1S(N)(=O)=O [Example 354, 6-((3-aminopropyl)sulfonyl)-3-(1H-benzo[d]imidazol-7-yl)-2-(1H-tetrazol-5-yl) benzenesulfonamide]	0.275 nM	0.226 nM	0.162 nM	0.7813 µM	1.563 µM	0.7813 µM	0.7813 µM	1.00	0.7813 µM	–	–	–	–
NCCS(=O)(=O)c1ccc(-c2ccccc2NC(=O)CN)c(-c2nn[nH]n2)c1S(N)(=O)=O [Example 340, 2-Amino-N-(4′-((2-aminoethyl)sulfonyl)-3′-sulfamoyl-2′-(2H-tetrazol-5-yl)-[1,1′-biphenyl]-2-yl)acetamide]	107 nM	24.8 nM	8.16 nM	1.563 µM	3.125 µM	3.125 µM	12.5 µM	4.00	3.125 µM	–	–	–	–
NS(=O)(=O)c1c(S(=O)(=O)C2CN(C(=O)NC3CC3)C2)ccc(-c2ccc(NS(=O)(=O)C3CC3)cc2)c1-c1nn[nH]n1 [Example 245, 3-((4′-(Cyclopropanesulfonamido)-3-sulfamoyl-2-(2H-tetrazol-5-yl)-[1,1′-biphenyl]-4-yl)sulfonyl)-N-cyclopropylazetidine-1-carboxamide]	0.126 nM	0.386 nM	0.218 nM	25 µM	50 µM	25 µM	50 µM	8.00	6.25 µM	–	–	–	–
NCCS(=O)(=O)c1ccc(-c2cncc3sc(N)nc23)c(-c2nn[nH]n2)c1S(N)(=O)=O [Example 81, 6-((2-aminoethyl)sulfonyl)-3-(2-aminothiazolo[5,4-c]pyridin-7-yl)-2-(2H-tetrazol-5-yl)benzenesulfonamide hydrochloride]	–	0.29 nM	0.356 nM	–	–	–	0.7813 µM	1.00	0.7813 µM	0.7813 µM	3.125 µM	1.563 µM	0.266 nM
NCCS(=O)(=O)c1ccc(-c2ccc(CO)nc2)c(-c2nnn[nH]2)c1S(N)(=O)=O.O=C(O)C(F)(F)F [Example 145, 2-((4-(6-(hydroxymethyl)pyridin-3-yl)-2-sulfamoyl-3-(1H-tetrazol-5-yl)phenyl)sulfonyl)ethanaminium 2,2,2-trifluoroacetate]	4.84 nM	4.31 nM	1.25 nM	–	–	–	12.5 µM	8.00	1.563 µM	1.563 µM	6.25 µM	3.125 µM	–

Source: patent publication US10227331B2 (priority 2015, dated 2019)
